Experimental data published in PMC9893751, “Synthesis of Benzimidazole-1,2,4-triazole Derivatives as Potential Antifungal Agents Targeting 14α-Demethylase” (ACS Omega, 2023).
≈ marks a conversion by molar mass, not a printed value.

How the values were obtained:
[1] = system: C. krusei (ATCC 6258); assay: In vitro antifungal activity (CLSI) against C. krusei; type: cell-based; details: for MIC: Pichia kudriavzevii, ATCC6258
From the text: (§1) Voriconazole and fluconazole (against candida strains) were used as standard reference drugs.

[2] = system: C. parapsilopsis (ATCC 22019); assay: In vitro antifungal activity (CLSI) against C. parapsilosis; type: cell-based; details: for MIC: Lodderomyces parapsilosis, ATCC22019
From the text: as §1

[3] = system: L929 cell lines; assay: Cytotoxicity MTT assay on L929 fibroblasts; type: cell-based
Procedure: (§2) The cytotoxic effect of compounds 6a–6l was evaluated against L929 cell lines. For preliminary screening, the cytotoxic bioactivity of synthesized compounds was evaluated in vitro against L929 cell lines with the MTT assay. […] The effect of the compounds 6a–6l on the viability of L929 cell lines was analyzed by MTT assay as described in the previous work.[45]

[4] = system: C. glabrata (ATCC 9); assay: In vitro antifungal activity (CLSI) against C. glabrata; type: cell-based; details: for Antifungal activity (MIC), C. glabrata / MIC: C. glabrata ATCC 9; for Effectiveness against C. glabrata compared with fluconazole / Effectiveness against C. glabrata compared with voriconazole: from MIC values; for MIC: Nakaseomyces glabratus, ATCC9
From the text: as §1

[5] = system: C. albicans (ATCC 24433); assay: In vitro antifungal activity (CLSI) against C. albicans; type: cell-based; details: for MIC: Candida albicans, ATCC24433
From the text: as §1

[6] = Cytotoxicity MTT assay on L929 fibroblasts; type: cell-based; details: mouse, L929 fibroblast cells; 100 μM, 48 h, L929 cell lines, MTT
Procedure: as §2

| Compound | Antifungal activity (MIC), C. krusei [1] [µg/mL] | Antifungal activity (MIC), C. parapsilosis [2] [µg/mL] | cell viability (%) ([3]; 100 µM) | Antifungal activity (MIC), C. glabrata [4] [µg/mL] | Effectiveness against C. glabrata compared with fluconazole [4] | Effectiveness against C. glabrata compared with voriconazole [4] | Antifungal activity (MIC), C. albicans [5] [µg/mL] | melting point [°C] | MIC [1] [µg/mL] | MIC [2] [µg/mL] | viability at 48 h, 100 µM [6] [%] | MIC [4] [µg/mL] | MIC [5] [µg/mL] | cell viability (%) ([3]; 100 μM, 48 h, L929 cell lines, MTT) | IC50 ([3]; Mus musculus, L929 fibroblasts, MTT, maximum dose 100 μM, 48 h, read-out: IC50 against L929) [µM] |
| --- | --- | --- | --- | --- | --- | --- | --- | --- | --- | --- | --- | --- | --- | --- | --- |
| 2-(4-(5-((2-(4-Nitrophenyl)-2-oxoethyl)thio)-4-phenyl-4H-1,2,4-triazol-3-yl)phenyl)-1H-benz[d]imidazole-5(6)-carbonitrile [6a] | 125 | 62.5 | 34 ± 6.19 | 1.95 | two times more effective | same activity | 31.25 |  |  |  |  |  |  |  |  |
| COc1ccc(C(=O)CSc2nnc(-c3ccc(-c4nc5cc(C#N)ccc5[nH]4)cc3)n2-c2ccccc2)cc1 [6b, 2-(4-(5-((2-(4-Methoxyphenyl)-2-oxoethyl)thio)-4-phenyl-4H-1,2,4-triazol-3-yl)phenyl)-1H-benz[d]imidazole-5(6)-carbonitrile] |  |  |  |  | four times more effective | two times more effective |  | 177.6 | 125 (≈ 230 µM) | 31.2 (≈ 57.6 µM) | 32.1 ± 1.38 | 0.97 (≈ 1.79 µM) | 31.2 (≈ 57.6 µM) |  |  |
| N#Cc1ccc(C(=O)CSc2nnc(-c3ccc(-c4nc5cc(C#N)ccc5[nH]4)cc3)n2-c2ccccc2)cc1 [6c, 2-(4-(5-((2-(4-Cyanophenyl)-2-oxoethyl)thio)-4-phenyl-4H-1,2,4-triazol-3-yl)phenyl)-1H-benz[d]imidazole-5(6)-carbonitrile] | 125 | 31.25 | 30.9 ± 1.42 | 1.95 | two times more effective | same activity | 31.25 |  |  |  |  |  |  |  |  |
| N#Cc1ccc2[nH]c(-c3ccc(-c4nnc(SCC(=O)c5ccc(F)cc5)n4-c4ccccc4)cc3)nc2c1 [6d, 2-(4-(5-((2-(4-Fluorophenyl)-2-oxoethyl)thio)-4-phenyl-4H-1,2,4-triazol-3-yl)phenyl)-1H-benz[d]imidazole-5(6)-carbonitrile] | 125 | 125 | 34.2 ± 5.13 | 1.95 | two times more effective | same activity | 62.5 |  |  |  |  |  |  |  |  |
| N#Cc1ccc2[nH]c(-c3ccc(-c4nnc(SCC(=O)c5ccc(-c6ccccc6)cc5)n4-c4ccccc4)cc3)nc2c1 [6e, 2-(4-(5-((2-([1,1′-Biphenyl]-4-yl)2-oxoethyl)thio)-4-phenyl-4H-1,2,4-triazol-3-yl)phenyl)-1H-benz[d]imidazole-5(6)-carbonitrile] | 125 | 62.5 |  | 1.95 | two times more effective | same activity | 62.5 |  |  |  |  |  |  | 40 ± 8.71 |  |
| N#Cc1ccc2[nH]c(-c3ccc(-c4nnc(SCC(=O)c5ccc(Br)cc5)n4-c4ccccc4)cc3)nc2c1 [6f, 2-(4-(5-((2-(4-Bromophenyl)-2-oxoethyl)thio)-4-phenyl-4H-1,2,4-triazol-3-yl)phenyl)-1H-benz[d]imidazole-5(6)-carbonitrile] | 125 | 62.5 | 27.6 ± 1.02 | 1.95 | two times more effective | same activity | 62.5 |  |  |  |  |  |  |  |  |
| N#Cc1ccc2[nH]c(-c3ccc(-c4nnc(SCC(=O)c5ccc(Cl)c(Cl)c5)n4-c4ccccc4)cc3)nc2c1 [6g, 2-(4-(5-((2-(3,4-Dichlorophenyl)-2-oxoethyl)thio)-4-phenyl-4H-1,2,4-triazol-3-yl)phenyl)-1H-benz[d]imidazole-5(6)-carbonitrile] | 250 | 31.25 | 34.6 ± 3.51 | 1.95 | two times more effective | same activity | 125 |  |  |  |  |  |  |  |  |
| N#Cc1ccc2[nH]c(-c3ccc(-c4nnc(SCC(=O)c5ccc(F)cc5F)n4-c4ccccc4)cc3)nc2c1 [6h, 2-(4-(5-((2-(2,4-Difluorophenyl)-2-oxoethyl)thio)-4-phenyl-4H-1,2,4-triazol-3-yl)phenyl)-1H-benz[d]imidazole-5(6)-carbonitrile] | 62.5 | 62.5 | 28.1 ± 1.48 | 1.95 | two times more effective | same activity | 62.5 |  |  |  |  |  |  |  |  |
| N#Cc1ccc2nc(-c3ccc(-c4nnc(SCC(=O)c5ccc(Cl)cc5)n4-c4ccccc4)cc3)[nH]c2c1 [6i, 2-(4-(5-((2-(4-Chlorophenyl)-2-oxoethyl)thio)-4-phenyl-4H-1,2,4-triazol-3-yl)phenyl)-1H-benz[d]imidazole-5(6)-carbonitrile] |  |  |  |  | four times more effective | two times more effective |  | 197.9 | 125 (≈ 229 µM) | 31.2 (≈ 57.1 µM) | 53.6 ± 2.82 | 0.97 (≈ 1.77 µM) | 62.5 (≈ 114 µM) |  | > 100 |
| N#Cc1ccc2nc(-c3ccc(-c4nnc(SCC(=O)c5ccc(Cl)cc5Cl)n4-c4ccccc4)cc3)[nH]c2c1 [6j, 2-(4-(5-((2-(2,4-Dichlorophenyl)-2-oxoethyl)thio)-4-phenyl-4H-1,2,4-triazol-3-yl)phenyl)-1H-benz[d]imidazole-5(6)-carbonitrile] |  |  |  |  | four times more effective | two times more effective |  | 206.5 | 125 (≈ 215 µM) | 31.2 (≈ 53.7 µM) | 32.5 ± 1.34 | 0.97 (≈ 1.67 µM) | 62.5 (≈ 107 µM) |  |  |
| N#Cc1ccc2[nH]c(-c3ccc(-c4nnc(SCC(=O)c5cccc([N+](=O)[O-])c5)n4-c4ccccc4)cc3)nc2c1 [6k, 2-(4-(5-((2-(3-Nitrophenyl)-2-oxoethyl)thio)-4-phenyl-4H-1,2,4-triazol-3-yl)phenyl)-1H-benz[d]imidazole-5(6)-carbonitrile] | 125 | 31.25 | 30.3 ± 0.41 | 1.95 | two times more effective | same activity | 31.25 |  |  |  |  |  |  |  |  |
| N#Cc1ccc2[nH]c(-c3ccc(-c4nnc(SCC(=O)c5ccccc5)n4-c4ccccc4)cc3)nc2c1 [6l, 2-(4-(5-((2-Oxo-2-phenylethyl)thio)-4-phenyl-4H-1,2,4-triazol-3-yl)phenyl)-1H-benz[d]imidazole-5(6)-carbonitrile] | 125 | 31.25 | 37.6 ± 3.55 | 1.95 | two times more effective | same activity | 31.25 |  |  |  |  |  |  |  |  |
| OC(Cn1cncn1)(Cn1cncn1)c1ccc(F)cc1F [fluconazole, reference compound] |  |  |  |  |  |  |  |  | 7.81 (≈ 25.5 µM) | 3.9 (≈ 12.7 µM) |  | 3.9 (≈ 12.7 µM) | 7.81 (≈ 25.5 µM) |  |  |
| C[C@@H](c1ncncc1F)[C@](O)(Cn1cncn1)c1ccc(F)cc1F [voriconazole, reference compound] |  |  |  |  |  |  |  |  | 3.9 (≈ 11.2 µM) | 3.9 (≈ 11.2 µM) |  | 1.95 (≈ 5.58 µM) | 3.9 (≈ 11.2 µM) |  |  |
